These results are taken from patent US4189426A, “Recombinant hormonal compositions and method” (Hoffmann-La Roche, Inc., priority 1978, dated 1980).

Like-named read-outs stand apart in the source and are kept apart here. Starred links: 1 amine or outer side, 2 acyl side, 3 side chain; linkers in the order of their positions; H or OH if unused. Non-standard residues stand in square brackets, D forms with d. No end group written: not given here. Cys(Cam) = carboxamidomethylated cysteine, NC(=O)CSC[C@H](N[*:1])C(=O)[*:2]

The subject of assay [1] is rabbit antisera to HCS. Kind of assay: microcomplement fixation. The assay is classed as binding. Particulars: antiserum to HCS at a dilution of 1:5500; HCS at 10 ng. As to the method:
(§1) Amino acid compositions of acid and carboxypeptidase hydrolysates were determined in an automatic amino acid analyzer (model 120B, Beckman Instruments). For the analysis of tryptophan, the methanesulfonic acid hydrolysates were used. Amino-terminal residue and sequence analyses were preformed by the dansyl-Edman procedure. Isoelectric focusing was carried out in 8 M urea. Prolactin activity was estimated by the pigeon crop-sac assay. Microcomplement fixation experiments were performed with rabbit antisera to HCS. The gel-double-diffusion technique of Ouchterlony was done using 1% agar in 0.01 M phosphate buffer of pH 7.5.

Assay [2] relates to pigeon crop-sac. Kind of assay: local crop-sac assay in the pigeon (prolactin / lactogenic activity). The class given is in vivo. Conditions: for Dry mucosal weight: Table 4, pigeon crop-sac test; for Dry mucosal weight / Pigeon crop-sac assay Response (dry mucosal weight): mean ± standard error; for Pigeon crop-sac assay Response (dry mucosal weight): Table 1, four birds. The protocol: The growth-promoting activity of PL-HGH, the unpurified recombinant of Example 1 (fraction IV), [Cys(Cam)^53 -HGH-(1-134)], [Cys(Cam)^165, 182, 189 -HGH-(141-191)] and saline control were determined by the rat tibia test of Greenspan et al, Endocrinology 45, 455 (1949) and by the local crop-sac assay in the pigeon according to Lyons, Proc. Soc. Exp. Biol. 35, 645 (1937) and Nicoll, Endocrinology 80, 641 (1967). Amino acid compositions of acid and carboxypeptidase hydrolysates were determined in an automatic amino acid analyzer (model 120B, Beckman Instruments). For the analysis of tryptophan, the methanesulfonic acid hydrolysates were used. Amino-terminal residue and sequence analyses were preformed by the dansyl-Edman procedure. Isoelectric focusing was carried out in 8 M urea. Prolactin activity was estimated by the pigeon crop-sac assay. Microcomplement fixation experiments were performed with rabbit antisera to HCS. The gel-double-diffusion technique of Ouchterlony was done using 1% agar in 0.01 M phosphate buffer of pH 7.5. Exclusion chromatography of the purified fragments or the recombinant was performed on a Sephadex G-100 column (1.5×60 cm; V0 =35 ml) in 10 mM NH4 HCO3 (pH 8.4) at 21°. Circular dichroism (CD) spectra were obtained by a spectropolarimeter (Cary model 60) equipped with a circular dichroism attachment (model 6002). Microcomplement fixation was performed with the guinea pig antiserum to ovine prolactin. The gel double-diffusion technique of Ouchterlony was carried out with 1% agar in 10 mM phosphate buffer (pH 7.5). The prolactin activity was estimated by the local crop-sac assay in the pigeon.

Assay [3] concerns rat tibia. Kind of assay: rat tibia test (growth-promoting activity). The assay is classed as in vivo. Particulars: for Response (tibia width): mean ± SEM; for Response (tibia width) / Rat tibia assay Response (tibia width): four animals; for Rat tibia assay Response (tibia width): Table 1, mean ± standard error; for growth-promoting activity, result in words: rat tibia test; for Response (rat tibia test): Table 7, total dose of 600 μg in 4 days, means ± S.E., four test animals; for Relative potency to HGH: Tables 5 and 8. The protocol:
The growth-promoting activity of PL-HGH, the unpurified recombinant of Example 1 (fraction IV), [Cys(Cam)^53 -HGH-(1-134)], [Cys(Cam)^165, 182, 189 -HGH-(141-191)] and saline control were determined by the rat tibia test of Greenspan et al, Endocrinology 45, 455 (1949) and by the local crop-sac assay in the pigeon according to Lyons, Proc. Soc. Exp. Biol. 35, 645 (1937) and Nicoll, Endocrinology 80, 641 (1967).
(§2) Plasmin fragments of reduced-carboxamidomethylation HGH and HCS were obtained as described above. Exclusion chromatography of the reaction mixture was performed at 22° C. on a Sephadex G-100 column (1.5×60 cm) in 0.01 M NH4 HCO3 of pH 8.4. For radioimmunoassay, the double-antibody procedure using a guinea pig antiserum to native HGH was performed. The growth-promoting activity was determined by the rat tibia test.

In assay [4] the test system is antisera to HCS. Kind of assay: gel double-diffusion technique of Ouchterlony. The class given is binding, rabbit. Particulars: HCS 10 μg, small fragment 40 μg. As to the method: as §1
Assay [5] has as its system guinea pig antiserum to native HGH. Kind of assay: radioimmunoassay, double-antibody procedure. The assay is classed as binding. The protocol: as §2

Take Cys (Cam)^53 -HCS-(1-133) [N]: the complement fixed entry in assay [1] is on record as “less than 10%”. Further, the Dry mucosal weight was determined as 11.2 ± 0.7 mg in assay [2] (total dose 40 (mg)) and 12.0 ± 0.9 mg in assay [2] (total dose 120 (mg)). For the same molecule, the “prolactin (lactogenic) activity, result in words” value (“prolactin (lactogenic) activity” for short) in assay [2] (pigeon crop-sac assay) is on record as “may have low activity but is much less than the native hormone”. The “Response (tibia width)” value in assay [3] (Table 5, total dose 300 μg) is recorded as 185.5 ± 1.7 micrometers. Besides, the precipitin reaction entry in assay [4] was “weak precipitin line which showed non-identity with the native hormone”.

In the case of “Cys(Cam)^53 -HGH-(1-134) [reference compound]”, the “radioimmunoassay inhibition / cross-reaction compared with HGH, in words” value in assay [5] is recorded as “only a slight cross-reaction”. The “Pigeon crop-sac assay Response (dry mucosal weight)” value in assay [2] (total dose 0.65 nmol) amounted to 9.6 ± 1.8 mg; in assay [2] (total dose 1.95 nmol) it was 12.4 ± 2.7 mg. Moreover, the “prolactin (lactogenic) activity” value in assay [2] (pigeon crop-sac assay) is given as “only a very small fraction of the comparative biological activities of the native human growth hormone”. In addition, the “Relative potency to PLHGH” value in assay [2] (pigeon crop-sac assay, Tables 1 and 2) was “less than 1%”; in assay [3] (rat tibia assay, Tables 1 and 2) it was 8%. The “Rat tibia assay Response (tibia width)” value in assay [3] (total dose 3.26 nmol) amounted to 207.2 ± 1.5 micra; in assay [3] (total dose 9.78 nmol), 235.5 ± 1.5 micra. Moreover, the “Response (tibia width)” value in assay [3] (Table 5, total dose 150 μg) was 231.2 ± 1.6 micrometers; in assay [3] (Table 5, total dose 450 μg), 275.0 ± 3.8 micrometers. Moreover, the “growth-promoting activity, result in words” value (from here on “growth-promoting activity”) in assay [3] is “only a very small fraction of the comparative biological activities of the native human growth hormone”.

Regarding “Cys(Cam)^165,182,189 -HGH-(141-191) (QTYSKFDTNSHNDDALLKNYGLLY[Cys(Cam)]FRKDMDKVETFLRIVQ[Cys(Cam)]RSVEGS[Cys(Cam)]GF; UniProt P01241 167-217, looked up, fragment) [COOH-terminal plasmin fragment of reduced-carboxamidomethylated HGH, reference compound]”, in assay [2] (total dose 20.3 nmol), the “Pigeon crop-sac assay Response (dry mucosal weight)” value was determined as 13.4 ± 1.2 mg. Moreover, in assay [2] (pigeon crop-sac assay), the “prolactin (lactogenic) activity” value is recorded as “only a very small fraction of the comparative biological activities of the native human growth hormone”. Besides, the “Rat tibia assay Response (tibia width)” value in assay [3] (total dose 9.78 nmol) was 186.7 ± 4.4 micra. In addition, the “Response (rat tibia test)” value in assay [3] is on record as 212 ± 7.3 microns. Besides, the “growth-promoting activity” value in assay [3] (182, 189 HGH-(141-191)]) is given as “only a very small fraction of the comparative biological activities of the native human growth hormone”; in assay [3] (listed as the 51 residue fragment) it was “about nil”.

In the case of Cys(Cam)^165, 182, 189, -HCS-141-191, the complement fixed entry in assay [1] is reported as “less than 10%”. The Dry mucosal weight in assay [2] (total dose 120 (mg)) was 6.5 ± 1.4 mg. Further, the precipitin reaction entry in assay [4] is given as “failed to give a precipitin reaction”.

On to “[Cys(Cam)HCS-(1-133)] + [Recombinant II, [Cys(Cam)HCS-(1-133)] + [Cys(Cam)^165,182,189 -HGH-(141-191)]]”, for which the “antigen concentration needed to give the same degree of inhibition, relative to HGH” value in assay [5] was “at least 30 times”. Moreover, the “radioimmunoassay inhibition / cross-reaction compared with HGH, in words” value in assay [5] is listed as “much less effective than HGH”. Besides, the “Response (tibia width)” value in assay [3] (Table 5, total dose 30 μg) came to 218.5 ± 9.8 micrometers; in assay [3] (Table 5, total dose 90 μg), 229.0 ± 4.1 micrometers. In addition, in assay [3] (rat tibia assay), the “Relative potency to HGH” value was found to be 10%. Besides, the “growth-promoting activity” value in assay [3] is recorded as “less active in comparison with that of I”; in assay [3] (listed as recombinant of Cys(Cam)^53 -HCS-(1-133) and Cys(Cam)^165, 182, 189 -HGH-(141-191)), “measurable growth promoting activity but at a reduced level of potency than the aforesaid recombinants”.

On to “[Cys(Cam)^53 -HGH(1-134)] + [Recombinant I, [Cys(Cam)^53 -HGH(1-134)] + [Cys(Cam^165,182,189 -HCS-(141-191)]]”, for which the “radioimmunoassay inhibition / cross-reaction compared with HGH, in words” value in assay [5] is “at low concentrations gave nearly identical inhibition to that of HGH”; in assay [5] (listed as recombinant of Cys (Cam)^53 -HGH-(1-134) and Cys (Cam)^165, 182, 189 -HCS-(141-1)) it was “nearly full immunoreactivity against the antiserum to HGH”. Also, the “Response (tibia width)” value in assay [3] (Table 5, total dose 20 μg) is recorded as 212.0 ± 4.7 micrometers; in assay [3] (Table 5, total dose 60 μg), 259.2 ± 2.9 micrometers. For the same molecule, in assay [3] (rat tibia assay, Table 5), the “Relative potency to Cys(Cam)^53 HGH-(1-134)” value is listed as 491%. Also, the “Relative potency to HGH” value in assay [3] (rat tibia assay) amounted to 50%. The “growth-promoting activity” value in assay [3] was “significant growth-promoting activity”.

“[Cys(Cam)^53 ]-HGH(1-134) + [Nle^170, Ala^165, 182, 189 ]-HGH(145-191) [Recombinant IV]”: the “Response (tibia width)” value was 248.5 ± 7.7 micrometers in assay [3] (Table 8, total dose 20 μg) and 297.2 ± 10.0 micrometers in assay [3] (Table 8, total dose 60 μg). The “Relative potency to HGH” value in assay [3] (rat tibia assay) is 113%.

As for “[Cys(Cam)^ 53 ]-HGH(1-134) + [Nle^170, Ala^165, 182, 189 ]-HGH(140-191) [Recombinant III]”, the “Response (tibia width)” value is 249.2 ± 9.2 micrometers in assay [3] (Table 8, total dose 20 μg) and 286.0 ± 2.1 micrometers in assay [3] (Table 8, total dose 60 μg). Also, in assay [3] (rat tibia assay), the “Relative potency to HGH” value is listed as 100%.

On to “[Lys^135,136,138, Glu^137,139, Nle^170,Ala^165,182,189 ]-HGH-(135-191)”, for which the “Response (rat tibia test)” value in assay [3] stood at 192 ± 3.5 microns.

For the molecule “[Nle^170, Ala^165,182,189 ]-HGH-(140-191)”, in assay [3], the “Response (rat tibia test)” value is 197 ± 4.2 microns.

In the case of “[Nle^170, Ala^165,182,189 ]-HGH-(145-191)”, in assay [3], the “Response (rat tibia test)” value turned out to be 189.5 ± 7.5 microns.

Consider human growth hormone [HGH], for which the “Response (tibia width)” value in assay [3] (Table 5, total dose 20 μg) was 242.8 ± 3.8 micrometers; in assay [3] (Table 5, total dose 60 μg), 282.8 ± 1.5 micrometers; in assay [3] (Table 8, total dose 20 μg), 245.0 ± 9.5 micrometers; in assay [3] (Table 8, total dose 60 μg), 290.2 ± 2.9 micrometers.

B1: human chorionic somatomammotropin (protein, UniProt P0DML2 27-217, looked up)
Chorionic somatomammotropin …: VQTVPLSRLFDHAMLQAHRAHQLAIDTYQEFEETYIPKDQKYSFLHDSQTSFCFSDSIPTPSNMEETQQKSNLELLRISLLLIESWLEPVRFLRSMFANNLVYDTSDSDDYHLLKDLEEGIQTLMGRLEDGSRRTGQILKQTYSKFDTNSHNHDALLKNYGLLYCFRKDMDKVETFLRMVQCRSVEGSCGF
notes: native human choriomammotropin hormone
For B1, the complement fixed result in assay [1] is reported as “about 90%”. The Dry mucosal weight in assay [2] (total dose 4 (mg)) was 24.2 ± 2.9 mg; in assay [2] (total dose 12 (mg)) it was 30.5 ± 3.7 mg. Besides, the precipitin reaction entry in assay [4] was “single sharp precipitin line”.
